Values joined by “and” are separate entries in the source; they are usually repeats but may differ in a detail not shown here. Equal entries are not always repeated. Where two headings read alike, the source gives them in different places. Where a SMILES comes first, the peptide text is derived from it.
Key:
in vitro = settings: human, HEK cells (HEK294 [sic])
[1] = tested on: tomato and tobacco leaves; assay: Leaf infiltration toxicity on tomato and tobacco leaves; settings: for toxicity to tomato and tobacco: 15-25 μM, even after 96 hours of leaf infiltration; for corrosion of infiltrated tomato and tobacco leaves: 24, 48, 72, and 96 hours of infiltration (FIGS. 8A-H)
E. coli strain BL21 = settings: BL21, 24 h
CLas = format: cell-based, Candidatus Liberibacter asiaticus
E. amylovora = format: cell-based, Erwinia amylovora
[2] = tested on: selected genes in the PTI, ETI, and SA/JA/ET signaling; format: cell-based, apple (Red Delicious)

| Compound | IC50 (E. coli BL21; BL21, 24 h) | cytotoxicity at 72 h, 20 µM (in vitro) | toxicity to tomato and tobacco [1] | corrosion of infiltrated tomato and tobacco leaves [1] | MIC (E. coli strain BL21) | other results |
| --- | --- | --- | --- | --- | --- | --- |
| CC[C@H](C)[C@H](NC(=O)[C@H](CCCNC(=N)N)NC(=O)[C@H](CCCNC(=N)N)NC(=O)[C@H](CCC(N)=O)NC(=O)[C@H](Cc1c[nH]c2ccccc12)NC(=O)[C@H](Cc1ccccc1)NC(=O)CNC(=O)[C@@H]1CCCN1C(=O)[C@H](CO)NC(=O)CNC(=O)[C@H](Cc1ccc(O)cc1)NC(=O)CNC(=O)[C@H](CO)NC(=O)[C@H](CCC(=O)O)NC(=O)[C@H](CC(C)C)NC(=O)[C@@H](NC(=O)[C@H](CCCCN)NC(=O)[C@H](CC(C)C)NC(=O)[C@@H](NC(=O)[C@H](CCCCN)NC(=O)[C@H](CCC(=O)O)NC(=O)[C@@H]1CCCN1C(=O)[C@H](CC(C)C)NC(=O)[C@H](CCCCN)NC(=O)[C@@H](N)CCCCN)[C@@H](C)CC)[C@@H](C)CC)C(=O)N[C@@H](CCCNC(=N)N)C(=O)N[C@@H](CCCNC(=N)N)C(=O)N[C@@H](Cc1c[nH]c2ccccc12)C(=O)N[C@@H](CCCNC(=N)N)C(=O)N[C@@H](CCCNC(=N)N)C(=O)O [UGK-13] (H-KKLPEKILKILESGYGSPGFWQRRIRRWRR-OH) | 1240 ± 20 nM | < 20% | not toxic | no corrosion beyond the infiltrated spots |  | IC50 (E. coli BL21; BL21): 1200 ± 100 nM; IC50 (ATCC25922): 1400 ± 300 nM |
| CC[C@H](C)[C@H](NC(=O)[C@H](CCCNC(=N)N)NC(=O)[C@H](CCCNC(=N)N)NC(=O)[C@H](CCC(N)=O)NC(=O)[C@H](Cc1c[nH]c2ccccc12)NC(=O)[C@H](Cc1ccccc1)NC(=O)CNC(=O)[C@@H]1CCCN1C(=O)[C@H](CO)NC(=O)CNC(=O)[C@H](CCCCN)NC(=O)[C@H](CC(C)C)NC(=O)[C@H](CO)NC(=O)[C@H](CCC(=O)O)NC(=O)[C@H](CC(C)C)NC(=O)[C@@H](NC(=O)[C@H](CCCCN)NC(=O)[C@H](CC(C)C)NC(=O)[C@@H](NC(=O)[C@H](CCCCN)NC(=O)[C@H](CCC(=O)O)NC(=O)[C@@H]1CCCN1C(=O)[C@H](CC(C)C)NC(=O)[C@H](CCCCN)NC(=O)[C@@H](N)CCCCN)[C@@H](C)CC)[C@@H](C)CC)C(=O)N[C@@H](CCCNC(=N)N)C(=O)N[C@@H](CCCNC(=N)N)C(=O)N[C@@H](Cc1c[nH]c2ccccc12)C(=O)N[C@@H](CCCNC(=N)N)C(=O)N[C@@H](CCCNC(=N)N)C(=O)O [UGK-17] (H-KKLPEKILKILESLKGSPGFWQRRIRRWRR-OH) | 1360 ± 40 nM | < 20% | not toxic | no corrosion beyond the infiltrated spots |  |  |
| CC[C@H](C)[C@H](NC(=O)[C@H](CCCCN)NC(=O)[C@H](CC(C)C)NC(=O)[C@@H](NC(=O)[C@H](CCCCN)NC(=O)[C@H](CCCCN)NC(=O)[C@@H](NC(=O)[C@H](CC(C)C)NC(=O)[C@H](CCCCN)NC(=O)[C@@H](N)CCCCN)[C@@H](C)CC)[C@@H](C)CC)C(=O)N[C@@H](CC(C)C)C(=O)O [Peptide 11P-1, reference compound] (H-KKLIKKILKIL-OH; N-terminus and C-terminus assumed) | 12900 ± 620 nM |  |  |  | 10 to 20 mM |  |
| CC[C@H](C)[C@H](NC(=O)[C@H](CCCCN)NC(=O)[C@H](CC(C)C)NC(=O)[C@@H](NC(=O)[C@H](CCC(=O)O)NC(=O)[C@H](CCCCN)NC(=O)[C@@H]1CCCN1C(=O)[C@H](CC(C)C)NC(=O)[C@H](CCCCN)NC(=O)[C@@H](N)CCCCN)[C@@H](C)CC)C(=O)N[C@@H](CC(C)C)C(=O)NCC(=O)N[C@@H](CO)C(=O)NCC(=O)N[C@@H](Cc1ccc(O)cc1)C(=O)NCC(=O)N[C@@H](CO)C(=O)N[C@@H](CC(C)C)C(=O)N1CCC[C@H]1C(=O)N[C@@H](CCCCN)C(=O)N[C@@H](CCC(=O)O)C(=O)N[C@H](C(=O)N[C@@H](CC(C)C)C(=O)N[C@@H](CCCCN)C(=O)N[C@H](C(=O)N[C@@H](CC(C)C)C(=O)N[C@@H](CCC(=O)O)C(=O)N[C@@H](CC(C)C)C(=O)N[C@@H](CCCCN)C(=O)N[C@@H](CCCCN)C(=O)O)[C@@H](C)CC)[C@@H](C)CC [Gen-1] (H-KKLPKEILKILGSGYGSLPKEILKILELKK-OH; N-terminus and C-terminus assumed) | 10220 ± 70 nM |  |  |  | 5 to 10 mM |  |
| CC[C@H](C)[C@H](NC(=O)[C@H](CCCCN)NC(=O)[C@H](CC(C)C)NC(=O)[C@@H](NC(=O)[C@H](CCCCN)NC(=O)[C@H](CCCCN)NC(=O)[C@@H]1CCCN1C(=O)[C@H](CC(C)C)NC(=O)[C@H](CCCCN)NC(=O)[C@@H](N)CCCCN)[C@@H](C)CC)C(=O)N[C@@H](CC(C)C)C(=O)NCC(=O)N[C@@H](CO)C(=O)NCC(=O)N[C@@H](Cc1ccc(O)cc1)C(=O)NCC(=O)N[C@@H](CO)C(=O)N1CCC[C@H]1C(=O)NCC(=O)N[C@@H](Cc1ccccc1)C(=O)N[C@@H](Cc1c[nH]c2ccccc12)C(=O)N[C@@H](CCC(N)=O)C(=O)N[C@@H](CCCNC(=N)N)C(=O)N[C@@H](CCCNC(=N)N)C(=O)N[C@H](C(=O)N[C@@H](CCCNC(=N)N)C(=O)N[C@@H](CCCNC(=N)N)C(=O)N[C@@H](Cc1c[nH]c2ccccc12)C(=O)N[C@@H](CCCNC(=N)N)C(=O)N[C@@H](CCCNC(=N)N)C(=O)O)[C@@H](C)CC [Peptide 30P-3] | 1450 ± 90 nM | < 20% | not toxic | no corrosion beyond the infiltrated spots |  | Ct value, DNA, CLas clearance from infected citrus leaves (CLas): 29.08 ± 0.018 (2.3 × 10^4 ± 0.122); Ct value, RNA, CLas clearance from infected citrus leaves (CLas): 31.80 ± 0.028 (6.8 × 10^3 ± 0.190); Ct, DNA, HLBas (CLas primer), Mean (CLas): 27.53 and 26.725; Ct, DNA, HLBas (CLas primer), single replicate (CLas): 27 (2×) and 28.06 and 26.45; Ct, RNA, HLBas (CLas primer), Mean (CLas): 30.155; Ct, RNA, HLBas (CLas primer), single replicate (CLas): 29.94 and 30.37; Ct, DNA, Erwinia Primer (P29T), Mean (E. amylovora; 20 μM peptide): 37.19; Ct, DNA, Erwinia Primer (P29T), single replicate (E. amylovora; 20 μM peptide): 37.67 and 36.71; Ct, DNA, Erwinia Primer (P29T), Mean (E. amylovora; 25 μM peptide): 36.5; Ct, DNA, Erwinia Primer (P29T), single replicate (E. amylovora; 25 μM peptide): 37.76 and 35.24; Ct, RNA, Erwinia Primer (P29T), Mean (E. amylovora; 25∞M peptide): 31.535; Ct, RNA, Erwinia Primer (P29T), single replicate (E. amylovora; 25∞M peptide): 31.56 and 31.51; Ct value, DNA, E. amylovora clearance from infected apple leaves (E. amylovora; qPCR of DNA, 25 μM peptide): 36.50 ± 0.89; cfu, DNA, E. amylovora clearance from infected apple leaves (E. amylovora; qPCR of DNA, 25 μM peptide, value in brackets): ~10^2 cfu; Ct value, RNA, E. amylovora clearance from infected apple leaves (E. amylovora; qPCR of RNA, 25 μM peptide): 31.54 ± 0.018; cfu, RNA, E. amylovora clearance from infected apple leaves (E. amylovora; qPCR of RNA, 25 μM peptide, value in brackets): 7.8 × 10^3 ± 0.122 cfu; expression of the selected genes [2]: lower expression of the selected genes |
| CC[C@H](C)[C@H](NC(=O)[C@H](CCC(=O)O)NC(=O)[C@H](CC(C)C)NC(=O)[C@@H](NC(=O)[C@H](CCCCN)NC(=O)[C@H](CCC(=O)O)NC(=O)[C@@H]1CCCN1C(=O)[C@H](CC(C)C)NC(=O)[C@H](CCCCN)NC(=O)[C@@H](N)CCCCN)[C@@H](C)CC)C(=O)N[C@@H](CC(C)C)C(=O)NCC(=O)N[C@@H](CO)C(=O)NCC(=O)N[C@@H](Cc1ccc(O)cc1)C(=O)N[C@@H](CCCCN)C(=O)N[C@@H](CCCCN)C(=O)N[C@@H](CC(C)C)C(=O)N1CCC[C@H]1C(=O)N[C@@H](Cc1ccccc1)C(=O)N[C@@H](Cc1c[nH]c2ccccc12)C(=O)N[C@@H](CCC(N)=O)C(=O)N[C@@H](CCCNC(=N)N)C(=O)N[C@@H](CCCNC(=N)N)C(=O)N[C@H](C(=O)N[C@@H](CCCNC(=N)N)C(=O)N[C@@H](CCCNC(=N)N)C(=O)N[C@@H](Cc1c[nH]c2ccccc12)C(=O)N[C@@H](CCCNC(=N)N)C(=O)N[C@@H](CCCNC(=N)N)C(=O)O)[C@@H](C)CC [Gen-2] (H-KKLPEKILEILGSGYKKLPFWQRRIRRWRR-OH; N-terminus and C-terminus assumed) | 2830 ± 140 nM |  |  |  | 2.5 to 5 mM |  |
| CC[C@H](C)[C@H](NC(=O)[C@H](CCCNC(=N)N)NC(=O)[C@H](CCCNC(=N)N)NC(=O)[C@H](CCC(N)=O)NC(=O)[C@H](Cc1c[nH]c2ccccc12)NC(=O)[C@@H](N)Cc1ccccc1)C(=O)N[C@@H](CCCNC(=N)N)C(=O)N[C@@H](CCCNC(=N)N)C(=O)N[C@@H](Cc1c[nH]c2ccccc12)C(=O)N[C@@H](CCCNC(=N)N)C(=O)N[C@@H](CCCNC(=N)N)C(=O)O [Peptide 11P-3, reference compound] (H-FWQRRIRRWRR-OH; N-terminus and C-terminus assumed) | 49000 ± 2790 nM |  |  |  | >20 mM |  |

From US20250243245A1 (priority 2022, published 2025)
